Literature values, collected in patent US20200179438A1, “BLOOD GLUCOSE SPIKE SUPPRESSOR, FOOD PRODUCT, AND METHOD FOR PRODUCING BLOOD GLUCOSE SPIKE SUPPRESSOR” (priority 2017, published 2020).

Conditions: for time until HB purity decreases after its increase: oral administration

Row | Structure (SMILES) | time until HB purity decreases after its increase | HB purity in the blood after oral administration (oral, reached in several minutes)
1 | C[C@@H](O)CCOC(=O)C[C@@H](C)O [KE] | within several hours | several millimolar
2 | C[C@@H](O)CC(=O)O [HB, (R)-3-hydroxybutyric acid] | within several hours | 
